# Literature values, collected in PubChem BioAssay AID493017 (Abbott Labs, 2003).
# pIC50: −log10 of the molar value.
# Target: Platelet-derived growth factor receptor alpha (Homo sapiens) (UniProt P16234)
# Experiment: PubChem AID 493017
# Conditions: WOMBAT literature affinities, multiple human targets; PDGFR; gene PDGFRA; NCBI gene 5156
# Chain of Platelet-derived growth factor receptor alpha (Homo sapiens) (P16234 whole entry, looked up): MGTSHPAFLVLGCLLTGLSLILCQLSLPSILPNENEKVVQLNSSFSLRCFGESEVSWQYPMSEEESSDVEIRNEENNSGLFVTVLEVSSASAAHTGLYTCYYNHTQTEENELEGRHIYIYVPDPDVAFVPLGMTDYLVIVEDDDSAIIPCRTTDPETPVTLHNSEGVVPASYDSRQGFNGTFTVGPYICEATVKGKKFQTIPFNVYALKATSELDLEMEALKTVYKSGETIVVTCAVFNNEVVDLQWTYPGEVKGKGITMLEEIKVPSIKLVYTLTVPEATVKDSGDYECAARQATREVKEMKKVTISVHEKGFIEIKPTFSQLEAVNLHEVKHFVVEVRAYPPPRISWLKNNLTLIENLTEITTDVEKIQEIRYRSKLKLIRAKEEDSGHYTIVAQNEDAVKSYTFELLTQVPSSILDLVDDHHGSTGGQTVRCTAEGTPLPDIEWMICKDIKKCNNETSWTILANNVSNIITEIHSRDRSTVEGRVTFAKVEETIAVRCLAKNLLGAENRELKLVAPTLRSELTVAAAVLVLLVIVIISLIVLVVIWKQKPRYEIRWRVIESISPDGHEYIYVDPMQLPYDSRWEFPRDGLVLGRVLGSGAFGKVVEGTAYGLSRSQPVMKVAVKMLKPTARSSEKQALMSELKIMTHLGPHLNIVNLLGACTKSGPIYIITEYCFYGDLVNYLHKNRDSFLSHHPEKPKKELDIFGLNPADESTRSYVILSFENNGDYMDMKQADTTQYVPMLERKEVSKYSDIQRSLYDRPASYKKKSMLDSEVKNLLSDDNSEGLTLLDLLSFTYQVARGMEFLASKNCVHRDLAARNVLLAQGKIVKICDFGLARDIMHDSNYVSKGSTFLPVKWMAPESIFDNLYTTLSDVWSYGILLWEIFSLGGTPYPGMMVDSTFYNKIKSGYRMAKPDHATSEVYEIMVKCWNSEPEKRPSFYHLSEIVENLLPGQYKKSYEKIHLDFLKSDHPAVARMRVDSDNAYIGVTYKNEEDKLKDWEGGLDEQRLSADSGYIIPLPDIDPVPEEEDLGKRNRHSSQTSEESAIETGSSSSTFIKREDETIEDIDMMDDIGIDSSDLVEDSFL
row,pIC50,SMILES
1,6.36,COc1cccc(Oc2ccnc3cc(OC)c(OC)cc23)c1
2,5.14,COc1cc2nccc(Oc3ccc(C(=O)c4ccccc4C(F)(F)F)cc3)c2cc1OC
3,4.32,COc1cc2nccc(Oc3ccccc3C(=O)c3ccccc3)c2cc1OC
4,5.44,COc1cc2nccc(Oc3ccc(NC(=O)c4ccc(C(C)=O)cc4)cc3)c2cc1OC
5,4.82,COc1cc2nccc(Oc3ccc(C(C)=O)cc3)c2cc1OC
6,5.16,COc1cc2nccc(Oc3cccc(C)c3)c2cc1OC
7,6.12,COc1cc2nccc(Oc3ccccc3)c2cc1OC
8,6.82,CCCCc1ccc(C(=O)c2ccc(Oc3ccnc4cc(OC)c(OC)cc34)cc2)cc1
9,6.48,COc1cc2nccc(Oc3ccc(N(C)C(=O)c4ccc(C(C)(C)C)cc4)cc3)c2cc1OC
10,5.77,COc1cc2nccc(Oc3ccc(C(=O)c4ccc(C)cc4)cc3)c2cc1OC
11,5.36,COc1cc2nccc(Oc3cccc(OC)c3OC)c2cc1OC
12,7.30,COc1cc2nccc(Oc3ccc(NC(=O)c4ccc(C(C)(C)C)cc4)cc3)c2cc1OC
